Read-outs that look alike come from different tables or passages of the source.
Tests used:
dopamine D2 receptors [1] = biological target: T1, dopamine D2 receptors (Homo sapiens (Human), UniProt P14416); assay: Dopamine D2 receptor radioligand competition binding assay ([3H]-Methylspiperone); conditions: [3H]-Methylspiperone 0.3 to 0.5 nM, 293T membranes
Protocol: The affinity of the compounds of the present disclosure for dopamine D2 receptors was determined by a radioligand competition binding assay.
In the first step, a cell membrane component containing specific dopamine D2 receptors was prepared. A 10 cm culture dish was used for transfection with […] of dopamine D2 receptors and 40 μL of polyethylenimine (PEI hereafter). […] A vacuum pump was used to suck off the culture medium, 3 mL of lysis buffer was added to each culture dish, and the cells were placed in a 4° C. cold room for 10 minutes. After the cells were detached, the cells were transferred to a 15 mL centrifuge tube and centrifuged at 1500 rpm for 5 minutes at 4° C., and the supernatant was discarded. The cell pellet was transferred to a tissue homogenizer, and 3 mL of lysis buffer was added and fully ground until the cells were broken. Then, cell suspension was equally aliquoted into several EP tubes, centrifuged at 12000 rpm for 5 minutes at 4° C., and the supernatant was discarded. The precipitate was the cell membrane component containing the dopamine D2 receptors.
First, a standard binding buffer was added to the cell membrane component containing the dopamine D2 receptors, and the cell membrane was disrupted and resuspended with an electric tissue homogenizer. 30 μL of membrane protein suspension was added to each well of a 96-well plate. Then, 30 μL of different drugs were added to the 96-well plate sequentially from bottom to top to ensure that the final drug concentrations were 10^−5 M, 10^−6 M, 10^−7 M, 10^−8 M, 10^−9 M, and 0 M, with two replicates per treatment. Next, 30 μL of [3H]-Methylspiperone was added to each well of the 96-well plate. The plate was incubated at room temperature in the dark for 2 hours. Detection was conducted. The machine readout value reflected the amount of [3H]-Methylspiperone bound on the membrane, and after further data processing, the affinity Ki values of different compounds for the dopamine D2 receptors were obtained.

dopamine D2 receptors [2] = biological target: T1, dopamine D2 receptors; assay: Dopamine D2 receptor β-arrestin2 BRET (recruitment); format: cell-based; conditions: for Emax: relative to endogenous ligand dopamine, read-out: β-arrestin2 BRET Emax % ± SEM
Protocol: (§1) To examine the downstream G-protein signaling pathway mediated by dopamine D2 receptors, on the first day, a 6 cm culture dish was used for transfection with 1 μg of dopamine D2 receptors, 1 μg of Gαi1 containing C-terminal seaweed luciferase (Gαi1-Rluc), 1 μg of Gβ3, 1 μg of Gγ9 containing C-terminal green fluorescent protein (Gγ9-GFP) mixed with 16 μL of PEI. At the same time, in order to examine the downstream β-arrestin2 signaling pathway mediated by dopamine D2 receptors, on the first day, a 6 cm culture dish was used for transfection with […] of dopamine D2 receptors containing C-terminal seaweed luciferase (D2-Rluc), […] of G protein-coupled receptor kinase 2 (GRK2), […] of β-arrestin2 containing N-terminal green fluorescent protein (GFP2-ARRB2) mixed with 14 μL of PEI. The next day, the confluent cells of a 6 cm culture dish were digested and reseeded into a 96-well plate with 100 μL of culture medium added to each well. On the third day, the drugs were added for test. The 96-well plate was taken out from the cell incubator to decant the culture medium, 40 μL of the substrate coelenterazine 400a (final concentration of 5 μM) was added to each well, and then 20 μL of different drugs were added sequentially from left to right to ensure that the final concentration of the drug decreased gradually from bottom to top, with two replicates per treatment. Finally, the prepared samples were loaded on machine for test. The machine readout value reflected the recruitment of β-arrestin2 to the membrane or the dissociation of G protein trimer. The former indicated the degree of activation of the β-arrestin2 signaling pathway downstream of the dopamine D2 receptors, and the latter indicated the degree of activation of the G protein signaling pathway downstream of the dopamine D2 receptors.

dopamine D2 receptors [3] = biological target: T1, dopamine D2 receptors; assay: Dopamine D2 receptor Gαi1 BRET (G protein trimer dissociation); format: cell-based; conditions: for Emax: relative to endogenous ligand dopamine, read-out: Gαi1 BRET Emax % ± SEM
Protocol: as §1

[4] = unit printed only in Cariprazine cell, read-out: β-arrestin2 BRET EC50
[5] = unit printed only in Cariprazine cell, read-out: Gαi1 BRET EC50
[6] = read-out: Affinity pKi ± SEM (converted)
[7] = read-out: β-arrestin2 BRET pEC50 ± SEM (converted)
[8] = read-out: Gαi1 BRET pEC50 ± SEM (converted)

T1 sequence (P14416 whole entry): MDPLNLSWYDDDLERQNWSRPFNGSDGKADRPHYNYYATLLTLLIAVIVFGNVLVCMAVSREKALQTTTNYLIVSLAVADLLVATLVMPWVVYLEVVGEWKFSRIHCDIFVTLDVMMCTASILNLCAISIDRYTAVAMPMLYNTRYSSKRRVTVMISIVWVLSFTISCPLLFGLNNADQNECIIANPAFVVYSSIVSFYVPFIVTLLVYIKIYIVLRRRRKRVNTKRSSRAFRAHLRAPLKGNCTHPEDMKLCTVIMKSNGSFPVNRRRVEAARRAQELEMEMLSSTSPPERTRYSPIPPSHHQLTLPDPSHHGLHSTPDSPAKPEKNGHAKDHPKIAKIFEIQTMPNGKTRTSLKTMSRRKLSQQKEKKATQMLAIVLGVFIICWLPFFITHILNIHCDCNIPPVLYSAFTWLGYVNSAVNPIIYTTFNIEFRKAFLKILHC

| Affinity pKi ± SEM (dopamine D2 receptors [1]) | SMILES | Ki (dopamine D2 receptors [1]; read-out: Affinity Ki) | Emax (dopamine D2 receptors [2]) | EC50 (dopamine D2 receptors [2]; [4]) | Emax (dopamine D2 receptors [3]) | EC50 (dopamine D2 receptors [3]; [5]) | Ki (dopamine D2 receptors [1]; [6]) | EC50 (dopamine D2 receptors [2]; [7]) | EC50 (dopamine D2 receptors [3]; [8]) |
| --- | --- | --- | --- | --- | --- | --- | --- | --- | --- |
| (6.82 ± 0.16) | COc1cccc2c3c(oc12)CN(CCCOc1ccc2ccc(=O)[nH]c2c1)CC3 [I-A8, 7-(3-(8-methoxy-3,4-dihydrobenzofuro[2,3-c]pyridin-2(1H)-yl)propoxy)quinolin-2(1H)-one] | 149 nM | 103% | 52.6 nM | 68% | 0.15 nM | – | – | – |
| – | COc1cccc2c3c(oc12)CN(CC[C@H]1CC[C@H](NS(C)(=O)=O)CC1)CC3 [I-A13, N-(trans-4-(2-(8-methoxy-3,4-dihydrobenzofuro[2,3-c]pyridin-2(1H)-yl)ethyl)cyclohexyl)methanesulfonamide] | 1720 nM | 81% | 4.61 nM | 53% | 46.6 nM | 1580 nM | 0.832 nM | 38.9 nM |
| – | COc1cccc2c3c([nH]c12)CN(CCCCOc1ccc2ccc(=O)[nH]c2c1)CC3 [I-B1, 7-(4-(8-methoxy-1,3,4,9-tetrahydro-2H-pyrido[3,4-b]indol-2-yl)butoxy)quinolin-2(1H)-one] | 362 nM | 50% | 13.1 nM | 22% | 233 nM | 83.2 nM | 12 nM | 102 nM |
